# Laboratory results reported in patent publication US11903397B2, “Hay preservative and methods for preservation of hay” (DANSTAR FERMENT AG, priority 2014, dated 2024).
# Marks after values point to notes of the source that are not given here.
# What was measured:
# [1] = system: total bacteria (non-fastidious bacteria growing on nutrient agar); experiment: Enumeration of total bacteria on hay (Example 1)
# Description: (§1) Two trial bales were made to determine time to complete application of the additive on one bale, weight of the bale as well as a more accurate measure of moisture content of the baled material. Bale moisture was determined using a hay probe. […] The application rate of P. anomala was 10^11 CFU in 1 L per ton of hay. The enzyme having a chitinase activity was applied at a rate of 1.5 g (suspended in 1 L of water) per ton of hay, corresponding to about 6 U per ton of hay. […] The negative control was water, and was applied at a rate of 1 L per ton of hay. […] Five replicate bales were made for each treatment. Samples of the P. anomala were taken after each application to verify the viability and numbers of the organism. […]
# (§2) Chemical and microbiological analyses were conducted on hay samples collected from six different sections of the field and on composite core samples obtained from four different locations on each bale on day 1, 90, and 180 of storage. […] Dry matter (DM), organic matter (OM) and crude protein (CP) were determined according to AOAC (1990) procedures, and neutral detergent fibre (NDF), acid detergent fibre (ADF), and acid detergent insoluble nitrogen (ADIN) as described by Van Soest et al., (1991. Methods for dietary fiber, neutral detergent and non-starch polysaccharides in relation to animal nutrition. J. Dairy Sci. 74: 3583-3597.).
# [2] = system: lactic acid producing bacteria (LAB); experiment: Enumeration of lactic acid producing bacteria on hay (Example 1)
# Description: as §1, §2
# yeasts [3] = experiment: Enumeration of yeasts on hay (Example 1)
# Description: as §1, §2
# molds = experiment: Enumeration of molds on hay (Example 1)
# Description: as §1, §2
# [4] = Quality evaluation of hay (color, odor, grade) after 180 days (Example 1); design: key to GRADE (overall evaluation by examiner): VP: very poor; P: poor; A: average; G: good; VG: very good
# Excerpt: All bales were opened on day 180 and their quality assessed based on the Maryland Cooperative Extension Fact Sheet #644.
# Temperature stability of the bales was monitored by continuously measuring the interior temperature of each bale with three Dallas Thermochron iButtons (Embedded Data Systems, Lawrenceburg, KY) that were inserted in the core holes the following morning after baling. The iButtons were configured to record temperatures every hour during the first 60 days of the storage period. […] Bales were opened and visually scored for extent of spoilage and mold at the end of the storage period (180 d) based on the Maryland Cooperative Extension Fact Sheet #644 ‘Evaluating Hay Quality’ (http://www.extension.umd.edu/publications/pdfs/fs644. pdf).
# [5] = In situ DM disappearance of hay in the rumen (Example 1); assay type: in vivo, Jersey cows; conditions: fitted equation, day 180 hay
# Description: (§3) In situ rate and extent of DM and NDF disappearance of the day 180 hay samples were determined in three cows fitted with ruminal cannulas and fed a standard feedlot backgrounding diet consisting of 50% timothy hay plus 50% barley silage (DM basis). Subsamples of the day 180 core samples obtained from bales treated with the same preservative were composited and ground to pass through a 4 mm screen. Approximately 4 g of each composite sample was weighed into Dacron bags and incubated in triplicate in each cow for 0, 2, 6, 12, 24, 48, 72, 96, and 120 h. Bags were made of monofilament polyester mesh (53 μm pore size, 5 cm×20 cm, Ankom, Fairport, New York). Cows were given two weeks to adapt to their diets before starting incubations. Immediately after incubation, bags were rinsed under cold tap water until all the rumen contents on the outside of the bags had been removed. Bags were washed in a domestic washing machine in cold water for three minutes using the delicate washing cycle without detergent and spin cycle. The washing procedure was repeated once. […] The residues from triplicate bags of the same treatment incubated in the same cow were pooled and ground to pass through a 1 mm screen before being analyzed for NDF as per the method stated above. Percentage disappearance of DM and NDF were calculated from the proportion remaining in the bags after each incubation time. […]
# [6] = In situ NDF disappearance of hay in the rumen (Example 1); assay type: in vivo, Jersey cows; conditions: fitted equation; day 180 hay
# Description: as §3
# total bacteria = experiment: Microbial counts on alfalfa hay: total bacteria (Example 2)
# Excerpt: (§4) The application rate of the combination of P. anomala in combination with the enzyme having a chitinase activity was respectively 10^11 CFU and 1.5 g in 1 L of water per ton of hay. Accordingly, the application rate of the combination of P. pentosaceus in combination with the enzyme having a chitinase activity 10^11 CFU and 1.5 g in 1 L of water per ton of hay. […] The negative control was water, and was applied at a rate of 1 L per ton of hay. Five large round bales of about 800 kg were made in accordance with Example 1 for each treatment on the same day. Core samples from bales across all treatments were collected at day 0, 90 and 180 after baling to analyze their nutritional value, fermentation product and microbial changes.
# (§5) Core samples collected on day 0 and 90, 180 after baling were subjected to microbiological and chemical analysis. Microbiological analysis was conducted to enumerate, isolate and characterize the microorganisms (total bacteria, yeasts and moulds) on appropriate plates through serial dilution.
# yeasts [7] = experiment: Microbial counts on alfalfa hay: yeast (Example 2)
# Excerpt: as §4, §5
# moulds = experiment: Microbial counts on alfalfa hay: mold (Example 2)
# Excerpt: as §4, §5
# [8] = In situ ruminal digestion parameters of alfalfa hay (Example 2); assay type: in vivo, cows; conditions: hay 180 days after baling
# Description: Core samples were collected on day 180 and evaluated for nutritional quality using in situ and in vitro methods.
# In situ experiments were conducted to assess the effect of hay preservatives on the rate and extent of digestion of hay samples collected 180 days after baling. Three cows fitted with ruminal cannulas and fed a standard feedlot backgrounding diet were used. Approximately 4 g of each composite sample from each bale (replicate) per treatment was weighed into Dacron bags and incubated in triplicate in each cow for 0, 2, 6, 12, 24, 48, 72, 96, and 120 h. Bags were retrieved after incubation and processed according to LRC SOP to determine in situ ruminal DM and NDF disappearance.
# [9] = In vitro digestibility and gas production of alfalfa hay in mixed rumen fluid (Example 2); design: species or system cows; conditions: 180 day hay
# Description: In vitro experiment was also conducted to assess the effect of microbial inoculants on gas production and kinetics from 180 day hay samples. Two runs by mixed rumen fluid from three cows fitted with ruminal cannulas and fed a standard feedlot backgrounding diet were conducted. Approximately 0.5 g of each composite sample of 180d hay per treatment was weighed into vial and incubated in triplicate in each run and gas were measured for 3, 6, 9, 12, 24 and 48 h. Vials were retrieved after incubation and processed according to LRC SOP to determine in vitro ruminal DM disappearance, gas production, ammonia and VFA.
# [10] = Temperature stability of alfalfa hay bales (Example 2, FIG. 2, FIG. 3)
# Excerpt: as §4
# Temperature of individual bales was monitored by continuously measuring the interior temperature throughout the storage period with three (3) Dallas Thermochron iButtons (Embedded Data Systems, Lawrenceburg, KY) inserted in the interior of each bale immediately after harvest (illustrated in pictures). The temperature was recorded at 4 hours intervals for 10 weeks.
# [11] = hay 90 days after treatment at baling
# [12] = hay 180 day post treatment at baling
# [13] = mean of bales, stored for 180 days
# [14] = day 0, unit printed only at total bacteria (log cfu/g DM)
structure (smiles),measurement,setting,value
"CCC(=O)O [BPA, Propionic Acid]",TB (non-fastidious bacteria growing on nutrient agar),[1]; [11],6.10 cfu log10
same,NA,[1]; [12],7.23 cfu log10
same,LAB (bacteria growing on MRS presumed to be Lactobacilli),[2]; [11],4.88^c cfu log10
same,MRS,[2]; [12],6.28 cfu log10
same,YEAST,yeasts [3]; [11],5.38 cfu log10
same,YEAST,yeasts [3]; [12],4.67^b cfu log10
same,MOLD,molds; [11],4.77 cfu log10
same,MOLD,molds; [12],6.24 cfu log10
same,hay quality by visual and sensory assessment (in words),[4]; bales opened on day 180,poorest quality
same,"COLOR score, Mean",[4]; [13],8.8 points
same,"ODOR score, Mean",[4]; [13],6.8 points
same,"OVERALL score, Mean",[4]; [13],15.6
same,GRADE (overall evaluation by examiner),"[4]; single bales (Bale # 1-5), stored for 180 days",P and VP
same,DM disappearance kinetics: c (fractional rate of disappearance of fraction b),[5],0.083^c h^−1
same,DM disappearance kinetics: c (fractional rate of disappearance of fraction b),[5]; listed as propionic acid,0.083 h⁻¹
same,NDF disappearance kinetics: Lag,[6],2.87^ab h
same,NDF disappearance kinetics: c (fractional rate of disappearance of fraction b),[6],0.069 h⁻¹
same,Total bacteria,total bacteria; day 0,6.34 log cfu/g DM
same,Total bacteria,total bacteria; day 90,8.49^a log cfu/g DM
same,Total bacteria,total bacteria; day 180,8.25^a log cfu/g DM
same,YEAST count,yeasts [7]; [14],5.49
same,YEAST count,yeasts [7]; day 90,6.22
same,YEAST count,yeasts [7]; day 180,4.89
same,MOLD count,moulds; [14],4.66
same,MOLD count,moulds; day 90,5.91
same,a = the rapidly degradable fraction,[8],23.64^c
same,b = the slowly degradable fraction,[8],51.69^a
same,c = the rate at which b is degraded,[8],0.04^c /h
same,lag = lag time,[8],1.70^c h
same,c = Fractional gas production rate fermentation rate,[9],6.6^c mL h^−1
same,lag = lag time,[9],0.48^a h
same,average interior bale temperature (in words),"[10]; 60 day period post baling, FIG. 2",highest mean temperature over time
same,time spent above 40° C. (in words),"[10]; storage 2012, FIG. 3",longest time above 40 °C
